Laboratory results published in patent US10765115B2 (priority 2015, dated 2020).

Key:
[1] = assay type: physicochemical; conditions: pH 7
legionella bacteria = assay type: cell-based; conditions: initial 10^7 CFU/100 mL, after 24 hours, 36° C., pH 7.0

Row | Structure (SMILES) | Residual concentration Cl2 (monochlorosulfamic acid as Cl2) [1] [mg/L] | Residual concentration Cl-MIT [1] [µg/L] | Sterilizing rate (legionella bacteria) [%]
1 | Cn1sc(Cl)cc1=O [Sample 17, 5-chloro-2-methyl-4-isothiazoline-3-one] | 0 | 600.0 | 
2 | Cn1sc(Cl)cc1=O [Sample 19, 5-chloro-2-methyl-4-isothiazoline-3-one] | 0 | 1500.0 | 
3 | Cn1sc(Cl)cc1=O [Sample 11, 5-chloro-2-methyl-4-isothiazoline-3-one] | 0 | 2.1 | 100
